Data as given in patent publication US7408048B2, “Mammalian grainyhead transcription factors” (Melbourne Health, priority 2002, dated 2008).
Marks after values point to notes of the source that are not given here.

Tests used:
GRHL-3^−/− mice = type: in vivo, mouse; details: for Observed NTDs: GRHL-3^−/− embryos from GRHL-3^+/− intercrosses, given to pregnant females, embryos harvested E14.5; for Predicted NTDs: predicted from the response of ct/ct embryos; for Mean litter size / frequency of resorptions: mouse, in vivo
Method: GRHL-3^+/− mice were inter-crossed and folate, inositol or PBS placebo was administered to pregnant females as previously described. Embryos were harvested on E14.5 and genotyped and examined morphologically. […] The results were analysed statistically by the one-sided binomial probability test. NTDs in the curly tail mice are resistant to folate administered in early gestation. […] The effects of folate and inositol administration on pregnant GRHL-3^+/− mice previously mated with GRHL-3^+/− males was examined (Table 6). As expected, no rescue of spina bifida in GRHL-3^−/− embryos with placebo or folate treatment was observed. […] Although the numbers of embryos examined was small, the result was highly significant (p<0.001) given the 70% reduction in the incidence of spina bifida in inositol-treated ct/ct embryos. These findings indicate that GRHL-3 expression is essential for inositol-mediated rescue of folate-resistant NTDs.

curly tail (ct/ct) mice = details: cited from earlier work
[1] = test system: five concatamerized GAL4 DNA binding sites upstream of the CAT gene in 293T cell line; assay: GAL4 DNA binding domain fusion / CAT reporter co-transfection; type: cell-based; details: fused to GAL4 DNA binding domain, human 293T cell line
Source text: Although significant sequence homology exists between grh and the shorter mgr isoforms and p70 mgr, the isoleucine rich transcriptional activation domain identified in the fly protein is not conserved. […] In view of the high degree of conservation of the first three coding exons of p70 mgr and bom, it was postulated that this could be the functional domain responsible for activation. To address this, the cDNA fragment encoding the first 93 amino acids of human p70 MGR (encoded by the first three exons) was subcloned in frame with the GAL4 DNA binding domain in a mammalian expression vector. […] These plasmids were co-transfected into the human 293T cell line with a reporter plasmid containing five concatamerized GAL4 DNA binding sites upstream of the chloramphenicol acetyltransferase (CAT) gene. The vector containing only the GAL4 DNA-BD or containing the VP16 activation domain fused to the GAL DNA-BD served as the negative and positive controls, respectively.

human En-1 promoter [2] = assay: En-1 promoter / luciferase reporter transfection in COS cells; type: cell-based; details: p70 MGR expression vector vs empty vector, MGR null cell line COS
Source text: (§1) FIG. 3 are representations showing that p70 MGR binds to and transactivates the human En-1promoter. (A) Identifcation of a grh consensus DNA binding site in the human En-1promoter. The consensus sequence for grh DNA binding (SEQ ID NO: 50) compiled from an alignment of the Drosophila Ultrabithorax, Dopa decarboxylase and fushi tarazu promoters was compared with the sequence of the proximal human En-1 promoter (SEQ ID NO: 49) and the Drosophilaengrailed promoter (SEQ ID NO: 48). The closed bracket indicates the extend of the grainyhead binding site in the engrailed promoter as defined by DNAseI footprinting. (B) Human p70 MGR binds 5 to the human En-1 promoter. Nuclear extract from the JEG-3 cell line was studied in an EMSA with a Ddc promoter probe in the presence of pre-immune sera (lane 1), anti-MGR specific antisera (detailed in legend to FIG. 2) (lane 2) or cold competitor DNA (lanes 3-5). A 50-fold excess of the Ddc probe was used in lane 3 and a 10- and 20-fold excess of a human En-1promoter probe in lanes 4 and 5, respectively. The migration of the MGR/DNA complex is shown by arrows. (C) Human p70 MGR transactivates the En-1promoter. […]

Drosophila PCNA promoter = assay: EMSA with JEG-3 nuclear extract, PCNA promoter probe; type: binding; details: anti-MGR antisera
Source text: (§2) FIG. 2 is a photographic representation showing that p70 MGR binds to Drosophila gene regulatory sequences which bind grh. (A) p70 MGR binds to the Drosophila PCNA promoter. Nuclear extract from the JEG-3 cell line was studied in an EMSA with a PCNA promoter probe in the presence and absence of anti-MGR specific antisera. Antisera 611 was raised against peptides common to the p70 and p49 MGR proteins in the dimerization domain and antisera 67 was raised against unique peptides in the NH2-terminal domain of p70 MGR. The migration of the MGR complex is shown in arrows. (B) p70 MGR binds to the Drosophila dopo decarboxylase promoter. Experimental conditions were as described for (A).
(§3) To determine the extent of the functional homology between GRH and MGR, it was initially examined whether the mammalian protein could bind to the well-characterized binding sites for the Drosophila factor in the Dopa decarboxylase and PCNA gene regulatory regions (Uv et al., Mol. Cell. Biol. 17: 6727-6735, 1997; Hayashi et al., J. Biol. Chem. 274: 35080-35088, 1999). Oligonucleotide probes encompassing these sites were incubated with nuclear extract from the human placental cell line JEG-3, which expresses both isoforms of MGR at RNA and protein level and analyzed in an electrophoretic mobility shift assay (EMSA). […]

[3] = test system: Drosophila dopa decarboxylase promoter; assay: EMSA with JEG-3 nuclear extract, Dopa decarboxylase promoter probe; type: binding; details: anti-MGR antisera
Source text: as §2, §3

human En-1 promoter [4] = assay: EMSA competition with JEG-3 nuclear extract, En-1 promoter probe; type: binding; details: cold En-1 probe competing with Ddc probe
Source text: as §1

Row | Molecule | Observed NTDs (GRHL-3^−/− mice) | Predicted NTDs (GRHL-3^−/− mice; GRHL-3^−/− embryos) | Mean litter size (GRHL-3^−/− mice) | frequency of resorptions (GRHL-3^−/− mice) | transcriptional activation of the CAT gene [1] | further results
1 | Nc1nc2ncc(CNc3ccc(C(=O)N[C@@H](CCC(=O)O)C(=O)O)cc3)nc2c(=O)[nH]1 [Folate, folate] | 100% | 100% | did not differ significantly | did not differ significantly | – | –
2 | O[C@H]1[C@H](O)[C@@H](O)[C@H](O)[C@@H](O)[C@H]1O [Inositol, inositol] | 100%* | 30% | did not differ significantly | did not differ significantly | – | rescue of spina bifida (incidence, severity) (GRHL-3^−/− mice; GRHL-3^−/− embryos, treatment of pregnant GRHL-3^+/− mice): neither the incidence, nor severity of the spina bifida in the GRHL-3^−/− embryos was alleviated; effect on NTDs / incidence of spina bifida (curly tail (ct/ct) mice; curly tail mice, administered in early gestation / pregnancy): marked reduction; reduction in the incidence of spina bifida (curly tail (ct/ct) mice; inositol-treated ct/ct embryos): 70%
3 | VP16 | – | – | – | – | transcriptional activation of the CAT gene was observed | –
4 | p70 MGR: human mammalian Grainyhead isoform p70, SEQ ID NO:4; first 93 amino acids fused to GAL4 DNA binding domain in b240 | – | – | – | – | transcriptional activation of the CAT gene was observed | transcriptional activity of the En-1 promoter (human En-1 promoter [2]): dramatically enhanced; binding to PCNA promoter probe (Drosophila PCNA promoter): binds; binding to dopa decarboxylase promoter probe [3]: binds; binding to En-1 promoter (human En-1 promoter [4]): binds
5 | bom: brother of mammalian grainyhead; region comparable to first 93 amino acids of p70 MGR fused to GAL4 DNA binding domain (protein, human) MSQESDNNKRLVALVPMPSDPPFNTRRAYTSEDEAWKSYLENPLTAATKAMMSINGDEDSAAALGLLYDYYKVPRDKRLLSVSKASDSQEDQEKRNCLGTSEAQSNLSGGENRVQVLKTVPVNLSLNQDHLENSKREQYSISFPESSAIIPVSGITVVKAEDFTPVFMAPPVHYPRGDGEEQRVVIFEQTQYDVPSLATHSAYLKDDQRSTPDSTYSESFKDAATEKFRSASVGAEEYMYDQTSSGTFQYTLEATKSLRQKQGEGPMTYLNKGQFYAITLSETGDNKCFRHPISKVRSVVMVVFSEDKNRDEQLKYWKYWHSRQHTAKQRVLDIADYKESFNTIGNIEEIAYNAVSFTWDVNEEAKIFITVNCLSTDFSSQKGVKGLPLMIQIDTYSYNNRSNKPIHRAYCQIKVFCDKGAERKIRDEERKQNRKKGKGQASQTQCNSSSDGKLAAIPLQKKSDITYFKTMPDLHSQPVLFIPDVHFANLQRTGQVYYNTDDEREGGSVLVKRMFRPMEEEFGPVPSKQMKEEGTKRVLLYVRKETDDVFDALMLKSPTVKGLMEAISEKYGLPVEKIAKLYKKSKKGILVNMDDNIIEHYSNEDTFILNMESMVEGFKVTLMEI | – | – | – | – | transcriptional activation of the CAT gene was observed | –
6 | p49 mgr: human mammalian Grainyhead isoform p49, SEQ ID NO:2; full length fused to GAL4 DNA binding domain (protein, GAL4 DNA-binding domain fusion; human) MASLWESPQQCIILSPLSGWWFSIGISILTSSALVLKPQMLKGELQTRPSQRPSRKAFRRNNFEYTLEASKSLRQKPGDSTMTYLNKGQFYPITLKEVSSSEGIHHPISKVRSVIMVVFAEDKSREDQLRHWKYWHSRQHTAKQRCIDIADYKESFNTISNIEEIAYNAISFTWDINDEAKVFISVNCLSTDFSSQKGVKGLPLNIQVDTYSYNNRSNKPVHRAYCQIKVFCDKGAERKIRDEERKQSKRKVSDVKVPLLPSHKRMDITVFKPFIDLDTQPVLFIPDVHFANLQRGTHVLPIASEELEGEGSVLKRGPYGTEDDFAVPPSTKLARIEEPKRVLLYVRKESEEVFDALMLKTPSLKGLMEAISDKYDVPHDKIGKIFKKCKKGILVNMDDNIVKHYSNEDT | – | – | – | – | No activation was observed | –
